From patent US9615577B2, “Herbicidally active cyclic dione compounds, or derivatives therefor, substituted by a phenyl which has an alkynyl-containing substituent” (Syngenta Limited, priority 2012, dated 2017)

Columns and labels:
Type in all cases: in vivo
Solanum nigrum (SOLNI) [1] = assay: Test 1A glasshouse assay for herbicidal activity, post-emergence; details: 312 h, evaluated after 13 days, read-out: percentage phytotoxicity SOLNI
Summary of the method: (§1)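 Seeds sown in standard soil were sprayed 1 day after sowing (pre-emergence) or after 8 days' growth (post-emergence) with the active ingredient in acetone/water (50:50) containing 0.5% Tween 20. Plants were kept in a glasshouse at 24/16 °C day/night, 14 h light, 65% humidity; phytotoxicity was scored visually after 13 days (0–100%).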

[2] = test system: Ipomoea hederacea (IPOHE); assay: as above; details: 312 h, evaluated after 13 days, read-out: percentage phytotoxicity IPOHE
Summary of the method: as §1

[3] = test system: Alopecurus myosuroides (ALOMY); assay: Biological Example 2 comparative herbicidal data, post-emergence glasshouse screen; details: 312 h, read-out: Post-emergence herbicidal activities (percentage phytotoxicity) ALOMY; for pest or weed control at 15.625 g/ha: 15.625 g/ha application rate; for pest or weed control at 62.5 g/ha: 62.5 g/ha application rate; for pest or weed control at 8 g/ha: 8 g/ha application rate; for pest or weed control at 30 g/ha: 30 g/ha application rate
Summary of the method: (§2)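 Plants grown 8 days in a glasshouse (24/16°C day/night, 14 h light, 65% humidity) were sprayed with compound in acetone/water (50:50) containing 0.5% Tween 20. They were kept under the same conditions and watered twice daily. Phytotoxicity was scored visually after 13 days (0 = no damage, 100 = total damage).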

[4] = test system: Echinochloa crus-galli (ECHCG); assay: as above; details: 312 h, read-out: Post-emergence herbicidal activities (percentage phytotoxicity) ECHCG; for pest or weed control at 15.625 g/ha: 15.625 g/ha application rate; for pest or weed control at 62.5 g/ha: 62.5 g/ha application rate; for pest or weed control at 8 g/ha: 8 g/ha application rate; for pest or weed control at 30 g/ha: 30 g/ha application rate
Summary of the method: as §2

Setaria faberi (SETFA) = assay: as above; details: 312 h, read-out: Post-emergence herbicidal activities (percentage phytotoxicity) SETFA; for pest or weed control at 15.625 g/ha: 15.625 g/ha application rate; for pest or weed control at 62.5 g/ha: 62.5 g/ha application rate; for pest or weed control at 8 g/ha: 8 g/ha application rate; for pest or weed control at 30 g/ha: 30 g/ha application rate
Summary of the method: as §2

Solanum nigrum (SOLNI) [5] = assay: Test 1A glasshouse assay for herbicidal activity, pre-emergence; details: 312 h, evaluated after 13 days, read-out: percentage phytotoxicity SOLNI
Summary of the method: as §1

[6] = test system: Ipomoea hederacea (IPOHE); assay: as above; details: 312 h, evaluated after 13 days, read-out: percentage phytotoxicity IPOHE
Summary of the method: as §1

[7] = test system: Abutilon theophasti Medik. (ABUTH); assay: as above; details: 312 h, evaluated after 13 days, read-out: percentage phytotoxicity ABUTH
Summary of the method: as §1

Eleusine indica (ELEIN) = assay: Biological Example 3 glasshouse assay for herbicidal activity, using various adjuvant systems, post-emergence; details: 8 g/ha, 14 DAA, adjuvant system per compound
Description: Post-emergence foliar spray application, 200 L/ha, usually one or two replicates for the weeds (depending on application rate), and two replicates for soybean.
Standard warm conditions (tropical), in glasshouse. Specifically, the glasshouse bay conditions are 24° C./18° C. day/night; 16/8 hours light/dark; 65% humidity.
The herbicidal application takes place at the following growth stages for plants which include inter alia one or more of the following plants (usually the herbicidal application takes place on at least the following six plants: DIGSA, ELEIN, SETFA, GLXMA Nikko, and GLXMA TMG133, and either BRADC or BRAPP):
Eleusine indica (ELEIN)—growth stage 12 or 13
Each test Compound is applied with one of the following adjuvant systems (all percentages are final concentrations in the aqueous spray mixture):
Adjuvant system 1: 0.5% v/v Adigor™ *, 1.0% v/v AMS (ammonium sulphate) and 12.5% v/v IPA (isopropyl alcohol).
Adjuvant system 2: 0.5% v/v Adigor™ * and 12.5% v/v IPA (isopropyl alcohol).
Adjuvant system 3: 0.5% v/v Hexamoll™ DINCH **, 1.0% v/v AMS (ammonium sulphate) and 12.5% v/v IPA (isopropyl alcohol).
Seeds of the weed plants, typically including inter alia [either Brachiaria decumbens (BRADC) or Brachiaria platyphylla (BRAPP)], Digitaria sanguinalis (DIGSA), Eleusine indica (ELEIN), Setaria faberi (SETFA) are sown in seed trays (troughs) containing clay loam soil (pH 7.0, 2.2% organic matter, “Trough Mix A”); and soybean seed is sown in pots containing the same soil with 3 soybean seedlings per pot. The plants are sprayed with the test herbicide when they reach the growth stages mentioned above.
The test herbicidal solutions are prepared by mixing the appropriate aliquots of the test substance(s) and the adjuvant system indicated above *** in deionised water to give the desired treatment concentration. […]
A visual assessment of the % herbicidal damage is made 7 and 14 Days After herbicide Application (DAA) (or, in a minority of cases, 7 and 15 DAA), and the results are recorded as % visual herbicidal damage where 0%=no damage to plants and 100%=plant totally killed. […]

[8] = test system: Abutilon theophasti Medik. (ABUTH); assay: Biological Example 2 comparative herbicidal data, post-emergence glasshouse screen; details: read-out: Post-emergence herbicidal activities (percentage phytotoxicity) ABUTH; for pest or weed control at 8 g/ha: 8 g/ha application rate; for pest or weed control at 30 g/ha: 30 g/ha application rate
[9] = test system: Amarantus retroflexus (AMARE); assay: as above; details: Amaranthus retroflexus, read-out: Post-emergence herbicidal activities (percentage phytotoxicity) AMARE; for pest or weed control at 8 g/ha: 8 g/ha application rate; for pest or weed control at 30 g/ha: 30 g/ha application rate

Structure (SMILES)	pest or weed control at 250 g/ha (Solanum nigrum (SOLNI) [1]) [%]	pest or weed control at 250 g/ha [2] [%]	pest or weed control at 250 g/ha (Solanum nigrum (SOLNI) [5]) [%]	pest or weed control at 250 g/ha [6] [%]	pest or weed control at 250 g/ha [7] [%]	pest or weed control at 8 g/ha [3] [%]	pest or weed control at 30 g/ha [3] [%]	pest or weed control at 8 g/ha [4] [%]	pest or weed control at 30 g/ha [4] [%]	pest or weed control at 8 g/ha (Setaria faberi (SETFA)) [%]	pest or weed control at 30 g/ha (Setaria faberi (SETFA)) [%]	pest or weed control at 8 g/ha [8] [%]	pest or weed control at 30 g/ha [8] [%]	pest or weed control at 8 g/ha [9] [%]	pest or weed control at 30 g/ha [9] [%]	other results
CC#Cc1cc(C)c(C2C(=O)CC(CC3CCOCC3)CC2=O)c(C)c1 (centres unmarked) [Compound A-9]	80	50	70	20												pest or weed control at 15.625 g/ha [3]: 80%; pest or weed control at 62.5 g/ha [3]: 90%; pest or weed control at 15.625 g/ha [4]: 100%; pest or weed control at 62.5 g/ha [4]: 100%; pest or weed control at 15.625 g/ha (Setaria faberi (SETFA)): 80%; pest or weed control at 62.5 g/ha (Setaria faberi (SETFA)): 90%
CC#Cc1cc(Cl)c(C2C(=O)C3CCC(C3)C2=O)c(OCC)c1 (centres unmarked) [Compound A-16]					70											
CC#Cc1cc(Cl)c(C2C(=O)CC3(CCOCC3)CC2=O)c(OC)c1 [Compound A-20, 9-(2-Chloro-6-methoxy-4-prop-1-ynyl-phenyl)-3-oxa-spiro[5.5]undecane-8,10-dione]					80	90	100	100	100	90	100	50	80	10	80	percentage control of Eleusine indica (ELEIN) (Eleusine indica (ELEIN)): 95%
CC#Cc1cc(C)c(C2C(=O)CC(CCSC)CC2=O)c(C)c1 (centres unmarked) [Compound A-21, 2-(2,6-Dimethyl-4-prop-1-ynyl-phenyl)-5-(2-methylsulfanyl-ethyl)cyclohexane-1,3-dione]					10	50	50	80	80	50	70	70	10	30	80	
CC#Cc1ccc(C2C(=O)C3CCC(C3)C2=O)c(C)c1 (single isomer, unassigned) [Compound A-2]	20	30	0	10												
CC#Cc1ccc(C2C(=O)C(C)(C)OC(C)(C)C2=O)c(C)c1 [Compound A-1]	30	90	0	0												pest or weed control at 15.625 g/ha [3]: 10%; pest or weed control at 62.5 g/ha [3]: 80%; pest or weed control at 15.625 g/ha [4]: 20%; pest or weed control at 62.5 g/ha [4]: 90%; pest or weed control at 15.625 g/ha (Setaria faberi (SETFA)): 20%; pest or weed control at 62.5 g/ha (Setaria faberi (SETFA)): 40%
CC#Cc1cc(C)c(C2C(=O)C3CCC(C3)C2=O)c(C)c1 (centres unmarked) [Compound A-5]					0	50	80	80	100	30	70	0	0	0	10	percentage control of Eleusine indica (ELEIN) (Eleusine indica (ELEIN)): 45%
Cc1cc(C#CCl)cc(C)c1C1C(=O)C2CCC(C2)C1=O (centres unmarked) [Compound A-6]	20	20	20	10												pest or weed control at 62.5 g/ha (Solanum nigrum (SOLNI) [1]; 62.5 g/ha): 20%; pest or weed control at 62.5 g/ha ([2]; 62.5 g/ha): 30%; pest or weed control at 15.625 g/ha [3]: 70%; pest or weed control at 62.5 g/ha [3]: 70%; pest or weed control at 15.625 g/ha [4]: 90%; pest or weed control at 62.5 g/ha [4]: 100%; pest or weed control at 15.625 g/ha (Setaria faberi (SETFA)): 90%; pest or weed control at 62.5 g/ha (Setaria faberi (SETFA)): 90%
CC#Cc1cc(Cl)c(C2C(=O)C3CCC(C)(C2=O)C3(C)C)c(OC)c1 (centres unmarked) [Compound A-17]					70											
CC#Cc1cc(C)c(C2C(=O)C3CCC(C3)C2=O)c(OC)c1 (centres unmarked) [Compound A-10]					0											
CC#Cc1cc(C)c(C2=C(OC(C)=O)CC(c3ccccn3)CC2=O)c(C)c1 (centres unmarked) [Compound A-15]					50											
CC#Cc1cc(C)c(C2=C(OC(=O)OC)CC(c3ccccn3)CC2=O)c(C)c1 (centres unmarked) [Compound A-14]					70											
CC#Cc1cc(Cl)c(C2C(=O)C3CCC(C3)C2=O)c(OC)c1 (centres unmarked) [Compound A-12]					0	40	90	90	100	50	90	10	40	0	0	pest or weed control at 62.5 g/ha ([7]; 62.5 g/ha): 0%
Cc1cc(C#CCl)cc(C)c1C1C(=O)CC(CC2CCOCC2)CC1=O (centres unmarked) [Compound A-8]	80	70	70	30												pest or weed control at 15.625 g/ha [3]: 70%; pest or weed control at 62.5 g/ha [3]: 80%; pest or weed control at 15.625 g/ha [4]: 90%; pest or weed control at 62.5 g/ha [4]: 100%; pest or weed control at 15.625 g/ha (Setaria faberi (SETFA)): 80%; pest or weed control at 62.5 g/ha (Setaria faberi (SETFA)): 90%
CC#Cc1cc(C)c(C2C(=O)CC(c3ccccn3)CC2=O)c(C)c1 (centres unmarked) [Compound A-13]					70	60	70	80	80	80	90	0	40	0	30	pest or weed control at 30 g/ha ([7]; 30 g/ha): 30%
